According to PMC3914206:

What was measured:
Type in all cases: binding
[1] = biological target: T1, panel of 442 kinases (Homo sapiens, UniProt O14730); conditions: Compound Concentration 10 µM
T1 construct: purchased KINOMEscan
T1 sequence (O14730 1-519): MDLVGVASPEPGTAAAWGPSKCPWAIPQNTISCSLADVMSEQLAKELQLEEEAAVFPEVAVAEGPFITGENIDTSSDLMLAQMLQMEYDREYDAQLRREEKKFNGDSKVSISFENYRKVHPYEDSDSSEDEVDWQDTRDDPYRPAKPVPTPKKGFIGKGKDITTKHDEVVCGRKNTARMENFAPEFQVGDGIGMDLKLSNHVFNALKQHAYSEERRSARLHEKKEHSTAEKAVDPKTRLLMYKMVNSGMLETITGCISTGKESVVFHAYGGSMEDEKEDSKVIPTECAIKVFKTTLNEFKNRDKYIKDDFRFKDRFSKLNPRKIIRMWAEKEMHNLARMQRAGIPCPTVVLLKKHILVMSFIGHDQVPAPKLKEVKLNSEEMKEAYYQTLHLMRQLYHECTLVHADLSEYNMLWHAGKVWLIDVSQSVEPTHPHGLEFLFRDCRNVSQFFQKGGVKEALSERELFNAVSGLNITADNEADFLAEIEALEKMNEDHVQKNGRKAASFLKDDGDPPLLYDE
Excerpt: (§1) We assessed the selectivity of members of this scaffold using the KINOMEscan methodology across a near comprehensive panel of 442 kinases [[18,27]].

[2] = biological target: T2, panel of 442 kinases (Homo sapiens, UniProt P51955); conditions: Compound Concentration 10 µM
T2 construct: purchased KINOMEscan
T2 sequence (P51955 1-445): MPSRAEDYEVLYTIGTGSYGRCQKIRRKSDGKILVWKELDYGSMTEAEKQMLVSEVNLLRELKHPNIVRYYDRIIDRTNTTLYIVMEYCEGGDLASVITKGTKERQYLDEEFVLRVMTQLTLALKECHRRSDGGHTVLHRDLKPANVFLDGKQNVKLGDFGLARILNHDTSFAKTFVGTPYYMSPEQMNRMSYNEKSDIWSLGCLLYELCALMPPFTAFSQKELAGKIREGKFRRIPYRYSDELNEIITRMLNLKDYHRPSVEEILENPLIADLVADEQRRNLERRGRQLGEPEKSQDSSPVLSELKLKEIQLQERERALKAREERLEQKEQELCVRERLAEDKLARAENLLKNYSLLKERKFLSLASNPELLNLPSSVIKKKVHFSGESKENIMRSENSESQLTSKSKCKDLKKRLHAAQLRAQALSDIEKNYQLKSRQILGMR
Excerpt: as §1

[3] = biological target: T3, panel of 442 kinases (Homo sapiens, UniProt Q9BX84); conditions: kinase TRPM6; compound concentration 10 µM
T3 construct: purchased KINOMEscan
T3 sequence (Q9BX84 whole entry): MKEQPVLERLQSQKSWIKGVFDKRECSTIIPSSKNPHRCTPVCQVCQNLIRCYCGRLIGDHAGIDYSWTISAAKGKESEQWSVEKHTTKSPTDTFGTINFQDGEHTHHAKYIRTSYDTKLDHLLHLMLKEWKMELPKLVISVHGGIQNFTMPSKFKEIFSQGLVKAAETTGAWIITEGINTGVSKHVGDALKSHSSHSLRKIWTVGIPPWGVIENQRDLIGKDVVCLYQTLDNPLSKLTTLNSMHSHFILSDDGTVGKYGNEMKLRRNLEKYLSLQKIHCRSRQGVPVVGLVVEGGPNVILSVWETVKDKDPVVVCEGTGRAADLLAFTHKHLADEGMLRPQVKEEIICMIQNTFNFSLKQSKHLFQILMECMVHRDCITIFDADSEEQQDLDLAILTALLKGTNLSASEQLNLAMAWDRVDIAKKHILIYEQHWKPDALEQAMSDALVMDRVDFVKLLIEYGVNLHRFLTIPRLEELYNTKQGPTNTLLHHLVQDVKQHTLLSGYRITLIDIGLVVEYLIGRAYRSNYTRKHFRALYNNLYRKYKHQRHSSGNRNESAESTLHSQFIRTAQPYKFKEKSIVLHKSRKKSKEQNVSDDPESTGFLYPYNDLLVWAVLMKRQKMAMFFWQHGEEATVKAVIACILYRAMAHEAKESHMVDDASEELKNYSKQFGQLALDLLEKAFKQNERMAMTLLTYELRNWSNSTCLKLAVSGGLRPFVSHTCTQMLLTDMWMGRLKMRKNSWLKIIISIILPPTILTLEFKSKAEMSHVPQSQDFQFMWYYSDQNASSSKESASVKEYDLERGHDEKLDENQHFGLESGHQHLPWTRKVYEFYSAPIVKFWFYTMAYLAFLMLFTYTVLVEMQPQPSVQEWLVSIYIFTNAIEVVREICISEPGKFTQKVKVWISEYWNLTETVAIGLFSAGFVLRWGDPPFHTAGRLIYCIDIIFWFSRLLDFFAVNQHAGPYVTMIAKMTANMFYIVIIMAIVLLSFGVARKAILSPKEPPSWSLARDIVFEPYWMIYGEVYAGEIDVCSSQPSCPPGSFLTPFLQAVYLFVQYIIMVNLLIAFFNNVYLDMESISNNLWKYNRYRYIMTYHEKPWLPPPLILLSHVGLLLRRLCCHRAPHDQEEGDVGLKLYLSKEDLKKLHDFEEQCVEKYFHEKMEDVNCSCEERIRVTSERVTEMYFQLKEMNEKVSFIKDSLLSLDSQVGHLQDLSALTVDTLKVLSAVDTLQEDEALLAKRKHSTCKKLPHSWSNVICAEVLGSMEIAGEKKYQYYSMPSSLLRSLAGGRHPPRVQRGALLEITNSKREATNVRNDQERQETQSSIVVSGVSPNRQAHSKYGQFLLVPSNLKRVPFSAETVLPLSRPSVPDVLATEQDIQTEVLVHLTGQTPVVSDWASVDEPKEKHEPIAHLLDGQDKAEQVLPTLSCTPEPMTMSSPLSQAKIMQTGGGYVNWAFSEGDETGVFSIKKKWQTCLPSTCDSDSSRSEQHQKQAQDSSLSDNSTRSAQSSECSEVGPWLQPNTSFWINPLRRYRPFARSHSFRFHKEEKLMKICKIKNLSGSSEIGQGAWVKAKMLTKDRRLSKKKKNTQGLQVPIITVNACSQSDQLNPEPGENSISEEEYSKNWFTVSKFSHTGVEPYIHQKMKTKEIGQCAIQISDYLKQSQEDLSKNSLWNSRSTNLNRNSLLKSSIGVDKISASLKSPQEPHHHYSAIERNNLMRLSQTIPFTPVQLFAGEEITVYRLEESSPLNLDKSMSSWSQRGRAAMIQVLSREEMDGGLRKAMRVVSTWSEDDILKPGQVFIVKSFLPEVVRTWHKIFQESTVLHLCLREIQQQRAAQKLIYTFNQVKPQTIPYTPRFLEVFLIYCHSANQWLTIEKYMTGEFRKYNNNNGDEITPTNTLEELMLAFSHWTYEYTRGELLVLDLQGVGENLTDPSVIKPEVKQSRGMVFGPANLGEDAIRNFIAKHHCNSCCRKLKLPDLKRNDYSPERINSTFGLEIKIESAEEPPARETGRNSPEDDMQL
Excerpt: as §1

SMILES	KINOMEscan: RIOK3 [1]	KINOMEscan: NEK2 [2]	% Ctrl, TRPM6 [3]
COc1cc(C(=O)N2CCC(N3CCN(C)CC3)CC2)ccc1Nc1ncc2c(n1)N(C1CCCC1)c1ccccc1C(=O)N2C [Compound 25, 11-cyclopentyl-2-((2-methoxy-4-(4-(4-methylpiperazin-1-yl)piperidine-1-carbonyl)phenyl)amino)-5-methyl-5H-benzo[e]pyrimido[5,4-b][1,4]diazepin-6(11H)-one]	84	88	100 % Ctrl
COc1cc(C(=O)N2CCC(N3CCN(C)CC3)CC2)ccc1Nc1ncc2c(n1)N1CCc3cccc(c31)C(=O)N2C [Compound 24]	74	62	100 % Ctrl
COc1cc(C(=O)N2CCC(N3CCN(C)CC3)CC2)ccc1Nc1ncc2c(n1)N(C)c1ccccc1C(=O)N2C [15 (LRRK2-IN-1)]	85	100	100 % Ctrl
CCOc1cc(C(=O)N2CCC(N3CCN(C)CC3)CC2)ccc1Nc1ncc2c(n1)N(C1CCCC1)c1ccccc1C(=O)N2C [Compound 26]	89	86	94 % Ctrl
